For this assay, the system named is BDF1 mice, P388 leukemia ip, median survival T/C. Description: NCI In Vivo Anticancer Drug Screen. Data for tumor model P388 Leukemia (intraperitoneal) in B6D2F1 (BDF1) mice. The note with it: endpoint: median survival time, higher = longer survival. In outline:
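Reported as T/C, where T is the survival measurement in dosed animals and C the same measurement in vehicle controls.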

[1] abbreviates: dose: 50.0 mg/kg/injection, schedule: Q01DX009 (ip), vehicle: saline with Tween-80.
Setting [2] is: dose: 100.0 mg/kg/injection, schedule: Q01DX009 (ip), vehicle: saline with Tween-80.
[3] abbreviates: dose: 200.0 mg/kg/injection, schedule: Q01DX009 (ip), vehicle: saline with Tween-80.
Where [4] appears, read: dose: 100.0 mg/kg/injection, schedule: Q04DX003 (ip), vehicle: saline with Tween-80.
Setting [5] is: dose: 200.0 mg/kg/injection, schedule: Q04DX003 (ip), vehicle: saline with Tween-80.
The mark [6] stands for this setting: dose: 400.0 mg/kg/injection, schedule: Q04DX003 (ip), vehicle: saline with Tween-80.
[7] abbreviates: dose: 100.0 mg/kg/injection, schedule: Q04DX003 (ip), vehicle: Klucel (hydroxypropylcellulose) (HPC).
[8] abbreviates: dose: 200.0 mg/kg/injection, schedule: Q04DX003 (ip), vehicle: Klucel (hydroxypropylcellulose) (HPC).
The mark [9] stands for this setting: dose: 400.0 mg/kg/injection, schedule: Q04DX003 (ip), vehicle: Klucel (hydroxypropylcellulose) (HPC).

“And” between values parts separate entries of the source, which are not always exact repeats. Equal values may be shown once. Toxic doses and inconclusive results are not listed.

Turning to `CC(C)NCC(O)COc1ccc2ncsc2c1` (stereo not drawn), the T/C was 108 % of control (dose: 50.0 mg/kg/injection, schedule: Q01DX009 (ip), vehicle: saline); 110 % of control (dose: 100.0 mg/kg/injection, schedule: Q01DX009 (ip), vehicle: saline); 91 % of control (dose: 200.0 mg/kg/injection, schedule: Q01DX009 (ip), vehicle: saline).

For the molecule `O=C(CNC(=O)Nc1n[nH]c(=S)s1)NNC(=S)Nc1ccccc1`, the T/C was 115 % of control under setting [1], 118 % of control under setting [2] and 109 % of control under setting [3].

On to `O=NN(CCCl)C(=O)NC12CC3CC(CC(C3)C1)C2`, for which the T/C reads like this: (dose: 5.0 mg/kg/injection, schedule: Q04DX003 (ip), vehicle: Klucel (hydroxypropylcellulose) (HPC)) 100 % of control; (dose: 15.0 mg/kg/injection, schedule: Q04DX003 (ip), vehicle: Klucel (hydroxypropylcellulose) (HPC)) 95 % of control; (dose: 30.0 mg/kg/injection, schedule: Q04DX003 (ip), vehicle: Klucel (hydroxypropylcellulose) (HPC)) 104 % of control; (dose: 37.5 mg/kg/injection, schedule: Q04DX003 (ip), vehicle: Klucel (hydroxypropylcellulose) (HPC)) 166 % of control; (dose: 75.0 mg/kg/injection, schedule: Q04DX003 (ip), vehicle: Klucel (hydroxypropylcellulose) (HPC)) 250 % of control; under setting [4], 285 % of control. Also, the T/C was 250 % of control (dose: 150.0 mg/kg/injection, schedule: Q04DX003 (ip), vehicle: Klucel (hydroxypropylcellulose) (HPC)); 103 % of control (dose: 175.0 mg/kg/injection, schedule: Q04DX003 (ip), vehicle: saline); 285 % of control under setting [5]; 285 % of control under setting [6].

`O=c1c2ccccc2c2c3c1cccc3c1cccc3c(=O)c4ccccc4c2c31`: the T/C under setting [4] was 86 % of control, the T/C under setting [5] is 90 % of control and the T/C under setting [6] was 90 % of control.

Consider `O=C(NNC(=O)c1ccc([N+](=O)[O-])cc1)c1ccccc1`, for which the T/C by setting is: (dose: 3.0 mg/kg/injection, schedule: Q01DX009 (ip), vehicle: Klucel (hydroxypropylcellulose) (HPC)) 95 % of control; (dose: 6.0 mg/kg/injection, schedule: Q01DX009 (ip), vehicle: Klucel (hydroxypropylcellulose) (HPC)) 104 % of control; (dose: 12.0 mg/kg/injection, schedule: Q01DX009 (ip), vehicle: Klucel (hydroxypropylcellulose) (HPC)) 100 % of control; (dose: 50.0 mg/kg/injection, schedule: Q01DX009 (ip), vehicle: Klucel (hydroxypropylcellulose) (HPC)) 92 % of control; under setting [7], 104 % of control; under setting [8], 87 % of control. Moreover, under setting [9], the T/C is 108 % of control.

For the molecule `NC(=O)NCCCC(N)C(=O)O` (stereo not drawn), the T/C is, setting by setting: (dose: 50.0 mg/kg/injection, schedule: Q01DX010 (ip), vehicle: saline) 94 % of control; (dose: 100.0 mg/kg/injection, schedule: Q01DX010 (ip), vehicle: saline) 94 % of control; (dose: 200.0 mg/kg/injection, schedule: Q01DX010 (ip), vehicle: saline) 89 % of control.

For `CC(C)CC(CC(C)C)NCC(C)OC(=O)c1ccc([N+](=O)[O-])cc1` (stereo not drawn), the T/C (dose: 50.0 mg/kg/injection, schedule: Q01DX009 (ip), vehicle: water) is 106 % of control; the T/C (dose: 50.0 mg/kg/injection, schedule: Q04DX003 (ip), vehicle: water) is 100 % of control; the T/C (dose: 100.0 mg/kg/injection, schedule: Q01DX009 (ip), vehicle: water) is 92 % of control; the T/C (dose: 100.0 mg/kg/injection, schedule: Q04DX003 (ip), vehicle: water) is 103 % of control; the T/C (dose: 200.0 mg/kg/injection, schedule: Q01DX009 (ip), vehicle: water) is 103 % of control; the T/C (dose: 200.0 mg/kg/injection, schedule: Q04DX003 (ip), vehicle: water) was 94 % of control. The T/C (dose: 400.0 mg/kg/injection, schedule: Q04DX003 (ip), vehicle: water) was 88 % of control.

Take `CC(=O)CC(C)=O.CC(=O)CC(C)=O.Cc1ncc[nH]1.Cc1ncc[nH]1.[Co]`: the T/C is 100 % of control (dose: 12.5 mg/kg/injection, schedule: Q01DX001 (ip), vehicle: saline with Tween-80); 97 % of control (dose: 25.0 mg/kg/injection, schedule: Q01DX001 (ip), vehicle: saline with Tween-80); 113 % of control (dose: 50.0 mg/kg/injection, schedule: Q01DX001 (ip), vehicle: saline with Tween-80).

As to `[O-]/C(CCCl)=N\[n+]1c2c(nc3ccccc31)-c1cccc3cccc-2c13`, the T/C is, setting by setting: (dose: 12.5 mg/kg/injection, schedule: Q01DX001 (ip), vehicle: Klucel (hydroxypropylcellulose) (HPC)) 102 % of control; (dose: 25.0 mg/kg/injection, schedule: Q01DX001 (ip), vehicle: Klucel (hydroxypropylcellulose) (HPC)) 100 % of control; (dose: 50.0 mg/kg/injection, schedule: Q01DX001 (ip), vehicle: Klucel (hydroxypropylcellulose) (HPC)) 102 % of control.

As to `Cc1cc(N=NC(N)=S)c2ccccc2c1O`, the T/C reads like this: under setting [2], 103 % of control; under setting [3], 100 % of control.

Take `COc1cc(CC#N)ccc1C`: the T/C (dose: 25.0 mg/kg/injection, schedule: Q01DX009 (ip), vehicle: Klucel (hydroxypropylcellulose) (HPC)) was 92 % of control.

For `NN(c1ccccc1)c1ccc2ccccc2c1`, the T/C is 95 % of control (dose: 50.0 mg/kg/injection, schedule: Q04DX003 (ip), vehicle: Klucel (hydroxypropylcellulose) (HPC)); 104 % of control under setting [7]; 109 % of control under setting [8].

In the case of `Cc1cc(C)c(-n2c(-c3ccc(Cl)cc3)nnc2-c2ccc(Br)cc2)c(C)c1`, the T/C is 104 % of control under setting [7], 100 % of control under setting [8] and 90 % of control under setting [9].

As for `OC1CCCCCCCCC1Cl` (stereo not drawn), the T/C runs as follows: (dose: 25.0 mg/kg/injection, schedule: Q01DX009 (ip), vehicle: saline with Tween-80) 104 % of control; under setting [1], 109 % of control; under setting [2], 100 % of control.

In the case of `COc1ccc2nc3c(Cl)c(Cl)c(=O)c(Cl)c-3sc2c1`, the T/C (dose: 12.5 mg/kg/injection, schedule: Q01DX005 (ip), vehicle: saline with Tween-80) is 102 % of control and the T/C (dose: 25.0 mg/kg/injection, schedule: Q01DX005 (ip), vehicle: saline with Tween-80) is 88 % of control.

As for `Cc1cc(N(C)C)c(C=O)c(C)c1C=O`, the T/C (dose: 100.0 mg/kg/injection, schedule: Q04DX002 (ip), vehicle: saline with Tween-80) was 113 % of control; the T/C (dose: 200.0 mg/kg/injection, schedule: Q04DX002 (ip), vehicle: saline with Tween-80) is 110 % of control; the T/C (dose: 400.0 mg/kg/injection, schedule: Q04DX002 (ip), vehicle: saline with Tween-80) was 87 % of control.

Consider `CCCCCCCCCCC(=O)[O][Sn]([CH](C)C)([CH](C)C)[CH](C)C`, for which the T/C was 109 % of control (dose: 12.5 mg/kg/injection, schedule: Q01DX009 (ip), vehicle: saline + Tween-80 + alcohol) and 119 % of control (dose: 25.0 mg/kg/injection, schedule: Q01DX009 (ip), vehicle: saline + Tween-80 + alcohol).

As to `CS(=O)(=O)OCCN(CCOS(C)(=O)=O)c1cccc(C(F)(F)F)c1`, the T/C runs as follows: (dose: 33.0 mg/kg/injection, schedule: Q04DX003 (ip), vehicle: saline with Tween-80) 155 % of control and 168 % of control; (dose: 50.0 mg/kg/injection, schedule: Q04DX003 (ip), vehicle: saline with Tween-80) 170 % of control and 190 % of control; (dose: 75.0 mg/kg/injection, schedule: Q04DX003 (ip), vehicle: saline with Tween-80) 236 % of control and 190 % of control.

In the case of `O=C(O)C(CS(=O)(=O)O)Nc1ncnc2nc[nH]c12` (stereo not drawn), the T/C is 100 % of control (dose: 100.0 mg/kg/injection, schedule: Q04DX003 (ip), vehicle: saline); 100 % of control (dose: 200.0 mg/kg/injection, schedule: Q04DX003 (ip), vehicle: saline); 100 % of control (dose: 400.0 mg/kg/injection, schedule: Q04DX003 (ip), vehicle: saline).

Consider `CN(C)c1cc(Br)c(C=O)cc1[N+](=O)[O-]`, for which the T/C is 95 % of control under setting [7], 95 % of control under setting [8] and 100 % of control under setting [9].

In the case of `COc1cccc2c1C(=O)c1c(O)c3c(c(O)c1C2=O)CC(O)(/C(C)=N/NC(=O)CCCCCCCCC(=O)N/N=C(\C)C1(O)Cc2c(O)c4c(c(O)c2C(OC2CC(N)C(O)C(C)O2)C1)C(=O)c1c(OC)cccc1C4=O)CC3OC1CC(N)C(O)C(C)O1` (stereo not drawn), the T/C was 172 % of control (dose: 3.13 mg/kg/injection, schedule: Q01DX009 (ip), vehicle: water); 210 % of control (dose: 6.25 mg/kg/injection, schedule: Q01DX009 (ip), vehicle: water); 88 % of control (dose: 25.0 mg/kg/injection, schedule: Q01DX009 (ip), vehicle: water).

The record behind these values is PubChem BioAssay AID328 (DTP/NCI, 2004).
